molecular target: T1, human Prostaglandin D Synthase (GST2) (Homo sapiens, UniProt O60760); test: Homogeneous biochemical assay of human Prostaglandin D Synthase (GST2) based on its glutathion-S-transferase activity (GSH conjugation to monochlorobimane, fluorescence); conditions: given beside the compound name in Examples 1 to 167; read-out: Potency Range (GST2 IC50)
T1 construct: the open reading frame of human Prostaglandin D Synthase was amplified from cDNA; made in house; host or cells: E. coli TOP10F'
T1 sequence (O60760 whole entry): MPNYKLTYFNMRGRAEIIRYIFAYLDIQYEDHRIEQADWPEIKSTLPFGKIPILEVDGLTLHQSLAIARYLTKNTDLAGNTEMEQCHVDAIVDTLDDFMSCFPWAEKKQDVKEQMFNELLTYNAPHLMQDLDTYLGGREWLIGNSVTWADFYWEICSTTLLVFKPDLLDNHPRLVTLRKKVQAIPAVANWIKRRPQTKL
Method in brief: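 N-His-tagged human PGD synthase from E. coli, assayed via its GST activity: GSH conjugation to monochlorobimane in 50 mM MES/KOH pH 6.1, 0.7 mM GSH, 2 mM MgCl2. Compounds at final picomolar to triple-digit micromolar concentrations.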

Row | SMILES | IC50 [nM]
1 | O=C(Nc1ccc(NC(=O)N2CCN(C(=O)c3cccc(F)c3)CC2)cc1)c1ccc[n+]([O-])c1 [Compound 116, 4-(3-Fluoro-benzoyl)-piperazine-1-carboxylic acid {4-[(1-oxy-pyridine-3-carbonyl)-amino]-phenyl}-amide] | 11 to 100
2 | O=C(Nc1ccc(NC(=O)N2CCN(C(=O)c3cccc(F)c3)CC2)cc1)c1ccc(F)nc1 [Compound 117, 4-(3-Fluoro-benzoyl)-piperazine-1-carboxylic acid {4-[(6-fluoro-pyridine-3-carbonyl)-amino]-phenyl}-amide] | 101 to 1000
3 | O=C(Nc1ccc(NC(=O)N2CCN(C(=O)c3cc(F)ccc3F)CC2)cc1)c1cccc[n+]1[O-] [Compound 118, 4-(2,5-Difluoro-benzoyl)-piperazine-1-carboxylic acid {4-[(1-oxy-pyridine-2-carbonyl)-amino]-phenyl}-amide] | 11 to 100
4 | O=C(Nc1ccc(NC(=O)N2CCN(C(=O)c3cc(F)ccc3F)CC2)cc1)c1ccc[n+]([O-])c1 [Compound 119, 4-(2,5-Difluoro-benzoyl)-piperazine-1-carboxylic acid {4-[(1-oxy-pyridine-3-carbonyl)-amino]-phenyl}-amide] | 11 to 100
5 | O=C(Nc1ccc(NC(=O)N2CCN(C(=O)c3cccc(F)c3)CC2)cc1)c1ccc(F)cc1 [Compound 120, 4-(3-Fluoro-benzoyl)-piperazine-1-carboxylic acid [4-(4-fluoro-benzoylamino)-phenyl]-amide] | 11 to 100
6 | CC(C)C(=O)Nc1ccc(NC(=O)N2CCN(C(=O)c3cccc(F)c3)CC2)cc1 [Compound 121, 4-(3-Fluoro-benzoyl)-piperazine-1-carboxylic acid (4-isobutyrylamino-phenyl)-amide] | 101 to 1000
7 | O=C(Nc1ccc(NC(=O)N2CCN(C(=O)c3cccc(F)c3)CC2)cc1)c1cccnc1 [Compound 122, 4-(3-Fluoro-benzoyl)-piperazine-1-carboxylic acid {4-[(pyridine-3-carbonyl)-amino]-phenyl}-amide] | 101 to 1000
8 | O=C(Nc1ccc(NC(=O)N2CCN(C(=O)c3cccc(F)c3)CC2)cc1)C1CCOCC1 [Compound 124, 4-(3-Fluoro-benzoyl)-piperazine-1-carboxylic acid {4-[(tetrahydro-pyran-4-carbonyl)-amino]-phenyl}-amide] | 101 to 1000
9 | O=C(Nc1ccc(NS(=O)(=O)c2ccccc2)cc1)N1CCN(C(=O)c2cccc(F)c2)CC1 [Compound 125, 4-(3-Fluoro-benzoyl)-piperazine-1-carboxylic acid (4-benzenesulfonylamino-phenyl)-amide] | 11 to 100
10 | O=C(Nc1ccc(NS(=O)(=O)C2CC2)cc1)N1CCN(C(=O)c2cccc(F)c2)CC1 [Compound 127, 4-(3-Fluoro-benzoyl)-piperazine-1-carboxylic acid (4-cyclopropanesulfonylamino-phenyl)-amide] | 11 to 100
11 | O=C(Nc1ccc(NS(=O)(=O)c2ccc(F)cc2)cc1)N1CCN(C(=O)c2cccc(F)c2)CC1 [Compound 128, 4-(3-Fluoro-benzoyl)-piperazine-1-carboxylic acid [4-(4-fluoro-benzenesulfonylamino)-phenyl]-amide] | 11 to 100
12 | CS(=O)(=O)N(c1ccc(NC(=O)N2CCN(C(=O)c3cccc(F)c3)CC2)cc1)S(C)(=O)=O [Compound 129, N-{4-[bis(methylsulfonyl)amino]phenyl}-4-(3-fluorobenzoyl)piperazine-1-carboxamide] | 11 to 100
13 | O=C(Nc1cccc(NS(=O)(=O)c2ccc(F)cc2)c1)N1CCN(C(=O)c2cccc(F)c2)CC1 [Compound 130, 4-(3-Fluoro-benzoyl)-piperazine-1-carboxylic acid [3-(4-fluoro-benzenesulfonylamino)-phenyl]-amide] | 101 to 1000
14 | O=C(Nc1cccc(NS(=O)(=O)C2CC2)c1)N1CCN(C(=O)c2cccc(F)c2)CC1 [Compound 131, 4-(3-Fluoro-benzoyl)-piperazine-1-carboxylic acid (3-cyclopropanesulfonylamino-phenyl)-amide] | 101 to 1000
15 | O=C(Nc1ccc(NS(=O)(=O)C2CC2)cc1)N1CCN(C(=O)c2cc(F)ccc2F)CC1 [Compound 132, 4-(2,5-Difluoro-benzoyl)-piperazine-1-carboxylic acid (4-cyclopropanesulfonylamino-phenyl)-amide] | 101 to 1000
16 | CS(=O)(=O)Nc1ccc(NC(=O)N2CCN(C(=O)c3cc(F)ccc3F)CC2)cc1 [Compound 133, 4-(2,5-Difluoro-benzoyl)-piperazine-1-carboxylic acid (4-methanesulfonylamino-phenyl)-amide] | 101 to 1000

More lines, now with the values ahead:

Row | IC50 [nM] | SMILES
17 | 101 to 1000 | O=C(Nc1ccc([N+](=O)[O-])c(F)c1)N1CCN(C(=O)c2cccc(F)c2)CC1 [Compound 134, 4-(3-Fluoro-benzoyl)-piperazine-1-carboxylic acid (3-fluoro-4-nitro-phenyl)-amide]
18 | 11 to 100 | O=C(Nc1ccc(-c2nnn[nH]2)cc1)N1CCN(C(=O)c2cccc(F)c2)CC1 [Compound 135, 4-(3-Fluoro-benzoyl)-piperazine-1-carboxylic acid [4-(1H-tetrazol-5-yl)-phenyl]-amide]
19 | 11 to 100 | Nc1ccc2nc(NC(=O)N3CCN(C(=O)c4cccc(F)c4)CC3)sc2c1 [Compound 136, 4-(3-Fluoro-benzoyl)-piperazine-1-carboxylic acid (6-amino-benzothiazol-2-yl)-amide]
20 | 11 to 100 | O=C(Nc1nc2ccc(NS(=O)(=O)C3CC3)cc2s1)N1CCN(C(=O)c2cccc(F)c2)CC1 [Compound 137, 4-(3-Fluoro-benzoyl)-piperazine-1-carboxylic acid (6-cyclopropanesulfonylamino-benzothiazol-2-yl)-amide]
21 | 11 to 100 | O=C(O)c1ccc2nc(NC(=O)N3CCN(C(=O)c4cccc(F)c4)CC3)sc2c1 [Compound 138, 2-{[4-(3-Fluoro-benzoyl)-piperazine-1-carbonyl]-amino}-benzothiazole-6-carboxylic acid]
22 | 11 to 100 | O=C(Nc1nc2ccc(C(=O)N3CCOCC3)cc2s1)N1CCN(C(=O)c2cccc(F)c2)CC1 [Compound 139, 4-(3-Fluoro-benzoyl)-piperazine-1-carboxylic acid [6-(morpholine-4-carbonyl)-benzothiazol-2-yl]-amide]
23 | 11 to 100 | O=C(Nc1ccc2nc(NC(=O)N3CCN(C(=O)c4cccc(F)c4)CC3)sc2c1)c1ccccn1 [Compound 140, 4-(3-Fluoro-benzoyl)-piperazine-1-carboxylic acid {6-[(pyridine-2-carbonyl)-amino]-benzothiazol-2-yl}-amide]
24 | 11 to 100 | NC(=O)c1ccc2nc(NC(=O)N3CCN(C(=O)c4cccc(F)c4)CC3)sc2c1 [Compound 141, 2-{[4-(3-Fluoro-benzoyl)-piperazine-1-carbonyl]-amino}-benzothiazole-6-carboxylic acid amide]
25 | 101 to 1000 | CC(C)c1noc(-c2ccc(NC(=O)N3CCN(C(=O)c4cccc(F)c4)CC3)cc2)n1 [Compound 142, 4-(3-Fluoro-benzoyl)-piperazine-1-carboxylic acid [4-(3-isopropyl-[1,2,4]oxadiazol-5-yl)-phenyl]-amide]
26 | 101 to 1000 | O=C(Nc1ccc(-n2cccn2)c(F)c1)N1CCN(C(=O)c2cccc(F)c2)CC1 [Compound 143]
27 | 101 to 1000 | O=C(Nc1ccc(-n2ccnc2)c(F)c1)N1CCN(C(=O)c2cccc(F)c2)CC1 [Compound 144]
28 | 101 to 1000 | O=C(Nc1ccc(-n2cncn2)c(F)c1)N1CCN(C(=O)c2cccc(F)c2)CC1 [Compound 145]
29 | 11 to 100 | O=C(Nc1ccc(N2CCN(c3ccccn3)CC2)c(F)c1)N1CCN(C(=O)c2cccc(F)c2)CC1 [Compound 146, 4-(3-Fluoro-benzoyl)-piperazine-1-carboxylic acid [3-fluoro-4-(4-pyridin-2-yl-piperazin-1-yl)-phenyl]-amide]
30 | 11 to 100 | O=C(Nc1ccc(-c2cccnc2)c(F)c1)N1CCN(C(=O)c2cccc(F)c2)CC1 [Compound 147, 4-(3-Fluoro-benzoyl)-piperazine-1-carboxylic acid (3-fluoro-4-pyridin-3-yl-phenyl)-amide]
31 | 101 to 1000 | O=C(Nc1ccc(C(F)(F)F)cc1)N1CCN(C(=O)c2cc(F)ccc2F)CC1 [Compound 148, 4-(2,5-Difluoro-benzoyl)-piperazine-1-carboxylic acid (4-trifluoromethyl-phenyl)-amide]
32 | 101 to 1000 | O=C(Nc1ccc(C(F)(F)F)cc1)N1CCN(C(=O)c2cccc(F)c2)CC1 [Compound 149, 4-(3-Fluoro-benzoyl)-piperazine-1-carboxylic acid (4-trifluoromethyl-phenyl)-amide]
33 | 11 to 100 | O=C(c1cccc(F)c1)N1CCN(C(=S)Nc2ccc(N3CCOCC3)nc2)CC1 [Compound 151, 4-(3-Fluoro-benzoyl)-piperazine-1-carbothioic acid (6-morpholin-4-yl-pyridin-3-yl)-amide]
34 | 11 to 100 | Cc1ccccc1C(=O)N1CCN(C(=S)Nc2ccc(N3CCOCC3)nc2)CC1 [Compound 152, 4-(2-Methyl-benzoyl)-piperazine-1-carbothioic acid (6-morpholin-4-yl-pyridin-3-yl)-amide]
35 | 101 to 1000 | O=C(c1cccc([N+](=O)[O-])c1)N1CCN(C(=S)Nc2ccc(N3CCOCC3)nc2)CC1 [Compound 153, 4-(3-Nitro-benzoyl)-piperazine-1-carbothioic acid (6-morpholin-4-yl-pyridin-3-yl)-amide]
36 | 101 to 1000 | NC(=O)c1cccc(C(=O)N2CCN(C(=O)Nc3ccc(F)cc3)CC2)c1 [Compound 157, 4-(3-Carbamoyl-benzoyl)-piperazine-1-carboxylic acid (4-fluoro-phenyl)-amide]
37 | 101 to 1000 | NC(=O)c1cccc(NC(=O)N2CCN(C(=O)c3cccc(F)c3)CC2)c1 [Compound 158, 4-(3-Fluoro-benzoyl)-piperazine-1-carboxylic acid (3-carbamoyl-phenyl)-amide]

Reference: patent US20100234377A1 (priority 2007, published 2010)
